Laboratory results published in ChEMBL document CHEMBL5303573, “Mapping human microbiome drug metabolism by gut bacteria and their genes” (Nature, 2019).

Assay: The drug is tested on Bacteroides coprophilus strain: DSM18228 for biotransformation. The drug concentrations were measured before and after a 12-h incubation by liquid-chromatography-coupled mass spectrometry (LC–MS)
Settings: 2 µM

| SMILES | Bacterial Biotransformation |
| --- | --- |
| CCC1(c2ccc(N)cc2)CCC(=O)NC1=O (centres undefined) [AMINOGLUTETHIMIDE] | Compound NOT metabolized |
| Clc1cccc(Cl)c1N=C1NCCN1 [CLONIDINE] | Compound metabolized |
| NC12CC3CC(CC(C3)C1)C2 [AMANTADINE] | Compound NOT metabolized |

Assay: The drug is tested on Bacteroides dorei strain: DSM17855 for biotransformation. The drug concentrations were measured before and after a 12-h incubation by liquid-chromatography-coupled mass spectrometry (LC–MS)
Settings: phocaeicola dorei, 2 µM

| SMILES | Bacterial Biotransformation |
| --- | --- |
| CCC1(c2ccc(N)cc2)CCC(=O)NC1=O (centres undefined) [AMINOGLUTETHIMIDE] | Compound NOT metabolized |
| Clc1cccc(Cl)c1N=C1NCCN1 [CLONIDINE] | Compound metabolized |
| NC12CC3CC(CC(C3)C1)C2 [AMANTADINE] | Compound NOT metabolized |

Assay: The drug is tested on Bacteroides ovatus strain: ATCC8483 for biotransformation. The drug concentrations were measured before and after a 12-h incubation by liquid-chromatography-coupled mass spectrometry (LC–MS)
Settings: 2 µM

| SMILES | Bacterial Biotransformation |
| --- | --- |
| CCC1(c2ccc(N)cc2)CCC(=O)NC1=O (centres undefined) [AMINOGLUTETHIMIDE] | Compound NOT metabolized |
| Clc1cccc(Cl)c1N=C1NCCN1 [CLONIDINE] | Compound metabolized |
| NC12CC3CC(CC(C3)C1)C2 [AMANTADINE] | Compound NOT metabolized |

Assay: The drug is tested on Bacteroides pectinophilus strain: ATCC43243 for biotransformation. The drug concentrations were measured before and after a 12-h incubation by liquid-chromatography-coupled mass spectrometry (LC–MS)
Settings: 2 µM

| SMILES | Bacterial Biotransformation |
| --- | --- |
| CCC1(c2ccc(N)cc2)CCC(=O)NC1=O (centres undefined) [AMINOGLUTETHIMIDE] | Compound NOT metabolized |
| Clc1cccc(Cl)c1N=C1NCCN1 [CLONIDINE] | Compound NOT metabolized |
| NC12CC3CC(CC(C3)C1)C2 [AMANTADINE] | Compound NOT metabolized |

Assay: The drug is tested on Bacteroides uniformis strain: ATCC8492 for biotransformation. The drug concentrations were measured before and after a 12-h incubation by liquid-chromatography-coupled mass spectrometry (LC–MS)
Settings: 2 µM

| SMILES | Bacterial Biotransformation |
| --- | --- |
| Clc1cccc(Cl)c1N=C1NCCN1 [CLONIDINE] | Compound metabolized |
| NC12CC3CC(CC(C3)C1)C2 [AMANTADINE] | Compound metabolized |

Assay: The drug is tested on Parabacteroides merdae strain: ATCC43184 for biotransformation. The drug concentrations were measured before and after a 12-h incubation by liquid-chromatography-coupled mass spectrometry (LC–MS)
Settings: 2 µM

| SMILES | Bacterial Biotransformation |
| --- | --- |
| CCC1(c2ccc(N)cc2)CCC(=O)NC1=O (centres undefined) [AMINOGLUTETHIMIDE] | Compound NOT metabolized |
| Clc1cccc(Cl)c1N=C1NCCN1 [CLONIDINE] | Compound NOT metabolized |
| NC12CC3CC(CC(C3)C1)C2 [AMANTADINE] | Compound NOT metabolized |

Assay: The drug is tested on Anaerococcus hydrogenalis strain: DSM7454 for biotransformation. The drug concentrations were measured before and after a 12-h incubation by liquid-chromatography-coupled mass spectrometry (LC–MS)
Settings: 2 µM

| SMILES | Bacterial Biotransformation |
| --- | --- |
| CCC1(c2ccc(N)cc2)CCC(=O)NC1=O (centres undefined) [AMINOGLUTETHIMIDE] | Compound NOT metabolized |
| Clc1cccc(Cl)c1N=C1NCCN1 [CLONIDINE] | Compound NOT metabolized |
| NC12CC3CC(CC(C3)C1)C2 [AMANTADINE] | Compound NOT metabolized |

Assay: The drug is tested on Anaerotruncus colihominis strain: DSM17241 for biotransformation. The drug concentrations were measured before and after a 12-h incubation by liquid-chromatography-coupled mass spectrometry (LC–MS)
Settings: 2 µM

| SMILES | Bacterial Biotransformation |
| --- | --- |
| CCC1(c2ccc(N)cc2)CCC(=O)NC1=O (centres undefined) [AMINOGLUTETHIMIDE] | Compound NOT metabolized |
| Clc1cccc(Cl)c1N=C1NCCN1 [CLONIDINE] | Compound NOT metabolized |
| NC12CC3CC(CC(C3)C1)C2 [AMANTADINE] | Compound NOT metabolized |

Assay: The drug is tested on Clostridium ramosum strain: DSM1402 for biotransformation. The drug concentrations were measured before and after a 12-h incubation by liquid-chromatography-coupled mass spectrometry (LC–MS)
Settings: thomasclavelia ramosa, 2 µM

| SMILES | Bacterial Biotransformation |
| --- | --- |
| CCC1(c2ccc(N)cc2)CCC(=O)NC1=O (centres undefined) [AMINOGLUTETHIMIDE] | Compound NOT metabolized |
| Clc1cccc(Cl)c1N=C1NCCN1 [CLONIDINE] | Compound NOT metabolized |
| NC12CC3CC(CC(C3)C1)C2 [AMANTADINE] | Compound NOT metabolized |

Assay: The drug is tested on Enterococcus faecalis strain: V583 for biotransformation. The drug concentrations were measured before and after a 12-h incubation by liquid-chromatography-coupled mass spectrometry (LC–MS)
Settings: 2 µM

| SMILES | Bacterial Biotransformation |
| --- | --- |
| CCC1(c2ccc(N)cc2)CCC(=O)NC1=O (centres undefined) [AMINOGLUTETHIMIDE] | Compound NOT metabolized |
| Clc1cccc(Cl)c1N=C1NCCN1 [CLONIDINE] | Compound NOT metabolized |
| NC12CC3CC(CC(C3)C1)C2 [AMANTADINE] | Compound NOT metabolized |

Assay: The drug is tested on Eubacterium rectale strain: ATCC33656 for biotransformation. The drug concentrations were measured before and after a 12-h incubation by liquid-chromatography-coupled mass spectrometry (LC–MS)
Settings: agathobacter rectalis, 2 µM

| SMILES | Bacterial Biotransformation |
| --- | --- |
| CCC1(c2ccc(N)cc2)CCC(=O)NC1=O (centres undefined) [AMINOGLUTETHIMIDE] | Compound NOT metabolized |
| Clc1cccc(Cl)c1N=C1NCCN1 [CLONIDINE] | Compound NOT metabolized |
| NC12CC3CC(CC(C3)C1)C2 [AMANTADINE] | Compound NOT metabolized |

Assay: The drug is tested on Ruminococcus gnavus strain: ATCC29149 for biotransformation. The drug concentrations were measured before and after a 12-h incubation by liquid-chromatography-coupled mass spectrometry (LC–MS)
Settings: mediterraneibacter gnavus, 2 µM

| SMILES | Bacterial Biotransformation |
| --- | --- |
| CCC1(c2ccc(N)cc2)CCC(=O)NC1=O (centres undefined) [AMINOGLUTETHIMIDE] | Compound NOT metabolized |
| Clc1cccc(Cl)c1N=C1NCCN1 [CLONIDINE] | Compound NOT metabolized |
| NC12CC3CC(CC(C3)C1)C2 [AMANTADINE] | Compound NOT metabolized |

Assay: The drug is tested on Ruminococcus torques strain: ATCC27756 for biotransformation. The drug concentrations were measured before and after a 12-h incubation by liquid-chromatography-coupled mass spectrometry (LC–MS)
Format: ADME
Design: dose 2 uM, timepoint 0 vs 12 hours
Settings: 2 µM

| SMILES | Bacterial Biotransformation |
| --- | --- |
| Clc1cccc(Cl)c1N=C1NCCN1 [CLONIDINE] | Compound NOT metabolized |
| NC12CC3CC(CC(C3)C1)C2 [AMANTADINE] | Compound NOT metabolized |

Assay: The drug is tested on Edwardsiella tarda strain: ATCC23685 for biotransformation. The drug concentrations were measured before and after a 12-h incubation by liquid-chromatography-coupled mass spectrometry (LC–MS)
Settings: 2 µM

| SMILES | Bacterial Biotransformation |
| --- | --- |
| CCC1(c2ccc(N)cc2)CCC(=O)NC1=O (centres undefined) [AMINOGLUTETHIMIDE] | Compound NOT metabolized |
| Clc1cccc(Cl)c1N=C1NCCN1 [CLONIDINE] | Compound NOT metabolized |
| NC12CC3CC(CC(C3)C1)C2 [AMANTADINE] | Compound NOT metabolized |

Assay: The drug is tested on Providencia stuartii strain: ATCC25827 for biotransformation. The drug concentrations were measured before and after a 12-h incubation by liquid-chromatography-coupled mass spectrometry (LC–MS)
Settings: 2 µM

| SMILES | Bacterial Biotransformation |
| --- | --- |
| CCC1(c2ccc(N)cc2)CCC(=O)NC1=O (centres undefined) [AMINOGLUTETHIMIDE] | Compound NOT metabolized |
| Clc1cccc(Cl)c1N=C1NCCN1 [CLONIDINE] | Compound NOT metabolized |
| NC12CC3CC(CC(C3)C1)C2 [AMANTADINE] | Compound NOT metabolized |

Settings: bifidobacterium adolescentis, 12 h, 2 µM
Description: The drug is tested on Bifidobacterium adolescentis strain: ATCC 15703 for biotransformation. The drug concentrations were measured before and after a 12-h incubation by liquid-chromatography-coupled mass spectrometry (LC–MS)

| SMILES | Bacterial Biotransformation |
| --- | --- |
| CCC1(c2ccc(N)cc2)CCC(=O)NC1=O (centres undefined) [AMINOGLUTETHIMIDE] | Compound NOT metabolized |
| Clc1cccc(Cl)c1N=C1NCCN1 [CLONIDINE] | Compound NOT metabolized |
| NC12CC3CC(CC(C3)C1)C2 [AMANTADINE] | Compound NOT metabolized |

Settings: bacteroides fragilis, 12 h, 2 µM
Description: The drug is tested on Bacteroides fragilis strain: NCTC 9343 for biotransformation. The drug concentrations were measured before and after a 12-h incubation by liquid-chromatography-coupled mass spectrometry (LC–MS)

| SMILES | Bacterial Biotransformation |
| --- | --- |
| CCC1(c2ccc(N)cc2)CCC(=O)NC1=O (centres undefined) [AMINOGLUTETHIMIDE] | Compound NOT metabolized |
| Clc1cccc(Cl)c1N=C1NCCN1 [CLONIDINE] | Compound metabolized |

Settings: parabacteroides johnsonii, 12 h, 2 µM
Description: The drug is tested on Parabacteroides johnsonii strain: DSM18315 for biotransformation. The drug concentrations were measured before and after a 12-h incubation by liquid-chromatography-coupled mass spectrometry (LC–MS)

| SMILES | Bacterial Biotransformation |
| --- | --- |
| CCC1(c2ccc(N)cc2)CCC(=O)NC1=O (centres undefined) [AMINOGLUTETHIMIDE] | Compound NOT metabolized |
| Clc1cccc(Cl)c1N=C1NCCN1 [CLONIDINE] | Compound NOT metabolized |
| NC12CC3CC(CC(C3)C1)C2 [AMANTADINE] | Compound NOT metabolized |

Settings: limosilactobacillus reuteri cf48-3a, 12 h, 2 µM
Description: The drug is tested on Lactobacillus reuteri CF48-3A strain: BEI HM-102 for biotransformation. The drug concentrations were measured before and after a 12-h incubation by liquid-chromatography-coupled mass spectrometry (LC–MS)

| SMILES | Bacterial Biotransformation |
| --- | --- |
| CCC1(c2ccc(N)cc2)CCC(=O)NC1=O (centres undefined) [AMINOGLUTETHIMIDE] | Compound NOT metabolized |
| Clc1cccc(Cl)c1N=C1NCCN1 [CLONIDINE] | Compound NOT metabolized |
| NC12CC3CC(CC(C3)C1)C2 [AMANTADINE] | Compound NOT metabolized |
